Assay results published in US6864363B2 (priority 2000, dated 2005).
Square brackets hold non-standard residues; d marks the D form. Peptide text beside a SMILES is read from it. * marks the point of attachment. Sta = CC(C)C[C@H](N)[C@@H](O)CC(=O)O; Isovaleryl = CC(C)CC(=O)*

Legend:
Format in all cases: biochemical, Porphyromonas gingivalis
P. gingivalis DPP-7 [1] = system: P. gingivalis DPP-7
P. gingivalis DPP-7 [2] = assay: Endopeptidase activity of DPP-7 on protein substrates and plasma inhibitors
[3] = pH optimum and stability of purified DPP-7 (activity against H-Ala-Phe-pNA)
Method: Kinetic Analysis—Routinely, the dipeptidylpeptidase amidolytic activity was measured with H-Ala-Phe-pNA (1 mM) in 0.2 M HEPES, pH 7.8 at 37° C. The reaction was followed for specific time intervals in a thermostated ELISA reader (SpectraMax, Applied Biosystem) and the release of p-nitroaniline was monitored at 405 nm. Other p-nitroanilide substrates were used in the same manner. For inhibition studies, the enzyme was first preincubated with an inhibitor for 15 minutes at 37° C., substrate added, and residual activity recorded. The initial steady-state velocity (v0) was determined by continuous assay for the range of substrate concentrations (100 nM to 1 mM). Km and Vmax were determined by hyperbolic regression of the kinetic data using the software package Hyper Version 1.02 obtained from Dr. J. S. Easterby (University of Liverpool, UK).
pH Optimum and Stability—Purified DPP-7 was active against H-Ala-Phe-pNA over a broad pH range, from neutral to basic pH (6.5-9.0) (FIG. 3). This activity also changed with the ionic strength of the buffer, reaching 200% at 0.5 M NaCl concentration in 100 mM HEPES, pH 8.0. DPP-7 was stable in 0.2 M HEPES, pH 8.0, for one week at 4° C. […] After 3 hours incubation at either room temperature or 37° C., activity was reduced to 62% and 20%, respectively. The optimum temperature for the hydrolysis of H-Ala-Phe-pNA was determined to be 43° C.

| Molecule | inactivation of / influence on DPP-7 activity (in words) (P. gingivalis DPP-7 [1]) | % of residual activity (P. gingivalis DPP-7 [1]) [%] | further results |
| --- | --- | --- | --- |
| α1-proteinase inhibitor: human plasma inhibitor | did not effect enzyme activity |  |  |
| CC(=O)N[C@@H](CC(C)C)C(=O)N[C@@H](CC(C)C)C(=O)N[C@H](C=O)CCCNC(=N)N [Leupeptin] |  | 107 |  |
| Aprotinin |  | 128 |  |
| CCCCCCCCCCCCOS(=O)(=O)[O-].[Na+] [SDS] | not sensitive to inactivation |  |  |
| gelatin |  |  | endopeptidase activity of DPP-7 on protein substrate (P. gingivalis DPP-7 [2]): did not show any endopeptidase activity |
| N[C@@H](CS)C(=O)O [Cysteine] |  | 90 |  |
| C[C@H](NC(=O)CN)C(=O)O [Gly-Ala] (H-Gly-Ala-OH) |  | 102 |  |
| insulin β chain |  |  | endopeptidase activity of DPP-7 on protein substrate (P. gingivalis DPP-7 [2]): did not show any endopeptidase activity |
| CC(C)CC(=O)N[C@H](C(=O)N[C@H](C(=O)N[C@@H](CC(C)C)[C@@H](O)CC(=O)N[C@@H](C)C(=O)N[C@@H](CC(C)C)[C@@H](O)CC(=O)O)C(C)C)C(C)C [Pepstatin] (Isovaleryl-VV[Sta]A[Sta]-OH) |  | 127 |  |
| c1cnc2c(c1)ccc1cccnc12 [1,10-orthophenanthroline] | did not influence its activity | 98 |  |
| NCCCC[C@H](N)C(=O)NCC(=O)O [Lys-Gly] (H-Lys-Gly-OH) |  | 96 |  |
| NC(N)=NCCC[C@H](N)C(=O)N[C@@H](Cc1ccccc1)C(=O)O [Arg-Phe] |  | 69 |  |
| α2-macroglobulin: human plasma inhibitor | did not effect enzyme activity |  |  |
| O=C(O)CI [Iodoacetic acid] | not | 102 |  |
| NC(N)=NCCC[C@H](N)C(=O)NCC(=O)O [Arg-Gly] (H-Arg-Gly-OH) |  | 84 |  |
| O=c1oc(Cl)c(Cl)c2ccccc12 [3,4-dichloroisocoumarin] | inactivated | 0 |  |
| Cl.NCCc1ccc(S(=O)(=O)F)cc1 [PEFABLOCK, 4-(2-aminoethyl)-benzenesulfonyl fluoride hydrochloride] | inactivated | 1 |  |
| DPP-7: P. gingivalis dipeptidylpeptidase-7, a 76 kDa serine protease purified from the membrane fraction (protein, listed as Porphyromonas gingivalis) MQMKLKSILLGAALLLGASGVAKADKGMWLLNELNQENLDRMRELGFTLPLDSLYSFDKPSIANAVVIFGGGCTGITVSDQGLIFTNHHCGYGAIQSQSTVDHDYLRDGFVSRTMGEELPIPGLSVKYLRKIVKVTDKVEGQLKGITDEMERLRKAQEVCQELAKKENADENQLCIVEPFYSNNEYFLIVYDVFKDVRMVFAPPSSVGKFGGDTDNWMWPRHTGDFSVFRVYAGADNRPAEYSKDNKPYKPVYFAAVSMQGYKADDYAMTIGFPGSTDRYLTSWGVEDRIENENNPRIEVRGIKQGIWKEAMSADQATRIKYASKYAQSANYWKNSIGMNRGLARLDVIGRKRAEERAFADWIRKNGKSAVYGDVLSSLEKAYKEGAKANREMTYLSETLFGGTEVVRFAQFANALATNPDAHAGILKSLDDKYKDYLPSLDRKVLPAMLDIVRRRIPADKLPDIFKNVIDKKFKGDTKKYADFVFDKSVVPYSDKFHAMLKSMDKEKFAKAIEKDPAVELSKSVIAAARAIQADAMANAYAIEKGKRLFFAGLREMYPGRALPSDANFTMRMSYGSIKGYEPQDGAWYNYHTTGKGVLEKQDPKSDEFAVQENILDLFRTKNYGRYAENGQLHIAFLSNNDITGGNSGSPVFDKNGRLIGLAFDGNWEAMSGDIEFEPDLQRTISVDIRYVLFMIDKWGQCPRLIQELKLI |  |  | optimum temperature for the hydrolysis of H-Ala-Phe-pNA [3]: 43 °C; stability ([3]; 0.2 M HEPES, pH 8.0, one week at 4° C.): stable; activity with ionic strength of the buffer ([3]; 0.5 M NaCl in 100 mM HEPES, pH 8.0): 200%; activity remaining after incubation ([3]; 3 hours at 37° C.): 20%; activity remaining after incubation ([3]; 3 hours at room temperature): 62%; stability, loss of activity ([3]; kept frozen at −80° C. for one month): no appreciable loss of activity |
| α1-antichymotrypsin: human plasma inhibitor (protein) HPNSPLDEENLTQENQDRGTHVDLGLASANVDFAFSLYKQLVLKAPDKNVIFSPLSISTALAFLSLGAHNTTLTEILKGLKFNLTETSEAEIHQSFQHLLRTLNQSSDELQLSMGNAMFVKEQLSLLDRFTEDAKRLYGSEAFATDFQDSAAAKKLINDYVKNGTRGKITDLIKDLDSQTMMVLVNYIFFKAKWEMPFDPQDTHQSRFYLSKKKWVMVPMMSLHHLTIPYFRDEELSCTVVELKYTGNASALFILPDQDKMEEVEAMLLPETLKRWRDSLEFREIGELYLPKFSISRDYNLNDILLQLGIEEAFTSKADLSGITGARNLAVSQVVHKAVLDVFEEGTEASAATAVKITLLSALVETRTIVRFNRPFLMIIVPTDTQNIFFMSKVTNPKQA | did not effect enzyme activity |  |  |
